Values quoted from earlier work in patent US20040034086A1, “Combination of an allosteric inhibitor of matrix metalloproteinase-13 with celecoxib or valdecoxib” (priority 2002, published 2004).

In the case of `Cc1onc(-c2ccccc2)c1-c1ccc(S(N)(=O)=O)cc1` [valdecoxib, 4-(5-methyl-3-phenyl-4-isoxazolyl)-benzenesulfonamide], the “Tolerability in clinical studies” value (combined analysis of various clinical studies) is listed as “well tolerated” and the “Overall upper gastrointestinal safety profile (ulcers, perforations, obstructions and GI bleeds)” value (compared with conventional NSAIDs such as ibuprofen, diclofenac and naproxen) is listed as “significantly better than the conventional NSAIDs studied”.
